Data: patent US20050075382A1, “N-Aryl-2-cyanooxazolidinones and their derivatives” (priority 2003, published 2005)
In brackets after ≈: the same amount, converted by molar mass.

Test system: Staphylococcus aureus (SAUR 9213)
Assay: MIC by standard agar dilution method
Format: cell-based
Details: Mueller Hinton agar, overnight at 35° C.
Excerpt: The antibacterial agents of this invention have useful activity against a variety of organisms. The in vitro activity of compounds of this invention can be assessed by standard testing procedures such as the determination of minimum inhibitory concentration (MIC) by agar dilution as described in “Approved Standard. Methods for Dilution Antimicrobial Susceptibility Tests for Bacteria That Grow Aerobically”, 3rd. ed., published 1993 by the National Committee for Clinical Laboratory Standards, Villanova, Pa., USA. The in vitro MICs of test compounds are determined by a standard agar dilution method. A stock drug solution of each analog is prepared in the preferred solvent, usually DMSO:H2O (1:3). Serial 2-fold dilutions of each sample are made using 1.0 ml aliquots of sterile distilled water. To each 1.0 ml aliquot of drug is added 9 ml of molten Mueller Hinton agar medium. The drug-supplemented agar is mixed, poured into 15×100 mm petri dishes, and allowed to solidify and dry prior to inoculation. Vials of each of the test organisms are maintained frozen in the vapor phase of a liquid nitrogen freezer. Test cultures are grown overnight at 35° C. on the medium appropriate for the organism. Colonies are harvested with a sterile swab, and cell suspensions are prepared in Trypticase Soy broth (TSB) to equal the turbidity of a 0.5 McFarland standard. A 1:20 dilution of each suspension is made in TSB. The plates containing the drug supplemented agar are inoculated with a 0.001 ml drop of the cell suspension using a Steers replicator, yielding approximately 10^4 to 10^5 cells per spot. The plates are incubated overnight at 35° C. Following incubation the Minimum Inhibitory Concentration (MIC μg/ml), the lowest concentration of drug that inhibits visible growth of the organism, is read and recorded.

Row | SMILES | MIC [µg/mL]
1 | N#C[C@H]1CN(c2ccc(C3CCS(=O)(=O)CC3)c(F)c2)C(=O)O1 [Example 1, (5R)-3-[4-(1,1-dioxidotetrahydro-2H-thiopyran-4-yl)-3-fluorophenyl]-2-oxo-1,3-oxazolidine-5-carbonitrile] | 1 (≈ 2.96 µM)
2 | N#C[C@H]1CN(c2cc(F)c(N3CCS(=O)(=O)CC3)c(F)c2)C(=O)O1 [Example 3, (5R)-3-[4-(1,1-dioxidothiomorpholin-4-yl)-3,5-difluorophenyl]-2-oxo-1,3-oxazolidine-5-carbonitrile] | 2 (≈ 5.6 µM)
3 | N#C[C@H]1CN(c2ccc(N3CCOCC3)c(F)c2)C(=O)O1 [Example 2, (5R)-3-(3-fluoro-4-morpholin-4-ylphenyl)-2-oxo-1,3-oxazolidine-5-carbonitrile] | 8 (≈ 27.5 µM)

Results, then the compound that gave them:

Row | MIC [µg/mL] | SMILES
4 | 4 (≈ 13.1 µM) | Cc1nnc(-c2ccc(N3C[C@H](C#N)OC3=O)cc2F)s1 [Example 4, (5R)-3-[3-fluoro-4-(5-methyl-1,3,4-thiadiazol-2-yl)phenyl]-2-oxo-1,3-oxazolidine-5-carbonitrile]
5 | 0.5 (≈ 1.77 µM) | N#C[C@H]1CN(c2ccc(-c3ccncc3)c(F)c2)C(=O)O1 [Example 5, (5R)-3-(3-fluoro-4-pyridin-4-ylphenyl)-2-oxo-1,3-oxazolidine-5-carbonitrile]
